Measurements reported in patent US11224619B2, “Formulations and methods for treatment of inflammatory skin diseases” (Zemtsov Enterprises, LLC, priority 2012, dated 2022).

System: atopic dermatitis / plaque psoriasis
Assay: Response of individual study subjects to earlier therapy

Question: For `C[C@H]1C[C@H]2[C@@H]3CCC4=CC(=O)C=C[C@]4(C)[C@@]3(F)[C@@H](O)C[C@]2(C)[C@@]1(O)C(=O)CCl` [clobetasol], which “Response to earlier therapy” value (Subject #2, chronic atopic dermatitis on the neck) is on record?
Answer: The value was “unresponsive”.

Question: For `CC(=O)OCC(=O)[C@@]12OC(C)(C)O[C@@H]1C[C@H]1[C@@H]3C[C@H](F)C4=CC(=O)C=C[C@]4(C)[C@@]3(F)[C@@H](O)C[C@@]12C` [fluocinonide], which “Response to earlier therapy” value (Subject #5, persistent psoriatic lesions on the abdomen) is on record?
Answer: The value was “unresponsive”.

Question: With etanercept as the molecule, how does the “Disease control under ongoing therapy” value (Subject #5, chronic severe plaque psoriasis, subcutaneous injections) read?
Answer: The value was “reasonable control”.
